Results taken from patent publication US20240116985A1, “STAPLED PEPTIDES AND METHODS THEREOF” (priority 2020, published 2024).
Values joined by “and” are separate entries in the source; they are usually repeats but may differ in a detail not shown here. Equal values may be shown once. Read-outs that look alike come from different tables or passages of the source.

Columns and labels:
[1] = molecular target: T1, full-length beta-Catenin (Uniprot ID P35222) (Homo sapiens, UniProt P35222); test: Fluorescence polarization IC50 (beta-catenin / 5FAM-TCF4 10-53 competition); assay type: binding; conditions: read-out: beta-Catenin FP IC50
T1 construct: 10 nM full-length beta-Catenin (Uniprot ID P35222)
T1 sequence (P35222 1-781): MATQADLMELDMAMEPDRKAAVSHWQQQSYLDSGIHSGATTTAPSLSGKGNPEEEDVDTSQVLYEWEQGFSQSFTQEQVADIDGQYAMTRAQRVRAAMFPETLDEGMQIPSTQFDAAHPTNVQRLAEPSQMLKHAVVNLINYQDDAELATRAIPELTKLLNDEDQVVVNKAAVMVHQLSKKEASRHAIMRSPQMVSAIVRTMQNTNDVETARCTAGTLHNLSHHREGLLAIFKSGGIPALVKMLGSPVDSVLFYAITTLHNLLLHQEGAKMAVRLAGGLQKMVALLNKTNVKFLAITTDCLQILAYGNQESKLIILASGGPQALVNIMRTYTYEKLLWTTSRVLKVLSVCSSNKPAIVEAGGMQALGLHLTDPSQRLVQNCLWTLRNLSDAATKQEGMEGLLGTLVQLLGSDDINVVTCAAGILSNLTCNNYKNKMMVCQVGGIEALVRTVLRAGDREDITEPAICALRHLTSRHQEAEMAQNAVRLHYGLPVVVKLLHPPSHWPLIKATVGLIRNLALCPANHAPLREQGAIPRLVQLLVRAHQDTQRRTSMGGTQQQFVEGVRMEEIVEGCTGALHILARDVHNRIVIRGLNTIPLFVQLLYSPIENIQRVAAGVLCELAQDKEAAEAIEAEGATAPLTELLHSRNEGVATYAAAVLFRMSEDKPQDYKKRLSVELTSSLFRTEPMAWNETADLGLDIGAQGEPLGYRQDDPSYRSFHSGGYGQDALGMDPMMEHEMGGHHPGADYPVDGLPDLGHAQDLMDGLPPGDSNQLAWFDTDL

CHI Log D procedure = assay type: physicochemical; conditions: pH 7.4, CHI Log D
[2] = molecular target: T2, beta-catenin/TCF4 engagement (Homo sapiens, UniProt P35222); test: Nano-BRET target engagement assay (B-cat-Halo & TCF4-Luc in HEK293 cells); assay type: cell-based; conditions: for inhibition at 10 µM: HEK293, 10 uM
T2 construct: expressed in transfected cells; host or cells: HEK293
T2 sequence (P35222 1-781): T1 sequence (P35222 1-781)

[3] = plate row B = 20 uM, integration 0.3 s, reading 1

IC50 [1]: 0.006 µM
chromatographic logD (CHI Log D procedure): 2.03
BRET % Inhibition ([2]; 0.625 uM, replicates): −32.1% and −5.3% and 6.3%
BRET % Inhibition ([2]; 1.25 uM, replicates): −6.1% and −18.2% and −25.1%
BRET % Inhibition ([2]; 2.5 uM, replicates): −23.7% and 8.1% and −9.2%
BRET % Inhibition ([2]; 5 uM, replicates): 6.8% and −15.3% and 30.1%
BRET % Inhibition ([2]; 10 uM, replicates): 24.5% and 21.5%
BRET % Inhibition ([2]; 20 uM, replicates): 52.9% and 40.7% and 71.4%
inhibition at 10 µM ([2]; read-out: NanoBRET % inh @ 10 uM): 53%
inhibition at 10 µM ([2]; replicates, read-out: BRET % Inhibition): 35.7%
BRET Acceptor 600 LP raw reading [2, 3]: 450 and 280
BRET Donor 450 BP raw reading [2, 3]: 59340 and 52650 and 45840
BRET Acceptor 600 LP raw reading ([2]; plate row C = 10 uM): 490 and 470
BRET Donor 450 BP raw reading ([2]; plate row C = 10 uM): 54740 and 47760 and 46640
BRET Acceptor 600 LP raw reading ([2]; plate row D = 5 uM): 630 and 600 and 430
BRET Donor 450 BP raw reading ([2]; plate row D = 5 uM): 56000 and 46130 and 45780
BRET Donor 450 BP raw reading ([2]; plate row E = 2.5 uM): 54130 and 32300 and 33550
BRET Acceptor 600 LP raw reading ([2]; plate row F = 1.25 uM (plate map)): 470 and 380 and 260
IC50 ([2]; read-out: NanoBRET Abs IC50): 6.3 µM
IC50 ([2]; read-out: NanoBRET IC50): 7.7 µM
Compound: CC(=O)N1CCC[C@]12CC=CCCCC1(CCCC=CCCCOC(=O)N3CC[C@@](C(=O)N[C@@H](Cc4ccsc4)C(=O)N[C@@H](Cc4csc5ccccc45)C(=O)N[C@@H](CCC(N)=O)C(=O)N[C@H](C)C(N)=O)(C3)NC(=O)[C@H](CC(N)=O)NC(=O)[C@H](Cc3ccccc3)NC(=O)[C@H](C)NC(=O)[C@H](C)NC(=O)[C@H](CC(=O)O)NC(=O)[C@H](CC(=O)O)NC1=O)NC(=O)[C@H](CC(C)(C)C)NC(=O)[C@H](CC(=O)O)NC2=O (stereo partly drawn) [I-822, Ac-PL3-Asp-Npg-B5-Asp-Asp-Ala-Ala-Phe-Asn-PyrS2-3Thi-BztA-Gln-dAla-NH2]
